The results in this text go back to US20090156551A1, “NOVEL COMPOSITION” (priority 2007, published 2009).

The subject of one assay is TIMP-1. Nature of the assay: Gene expression in normal human chondrocytes, RT-PCR. As to conditions: for Expression level (%) TIMP-1: at 12.5 μmol/L, 4 hours, % of unstimulated cells (100%). It counts as cell-based. On the procedure:
[Worded in the source for another target; this target is reported under the same test.] (§1) The effect of MA and HO, mixtures thereof as well as combinations with glucosamine sulfate and chondroitin sulfate on the expression of human aggrecan, collagen I, collagen II, or chondrocyte transcription factors (SOX-6, -9) was measured in vitro in normal human chondrocytes (derived from knee) (CC-2550; Cambrex, respectively). A control experiment without the compounds was done concomitantly to compare the expression of these genes (percentage expression of gene in controls was set to 100%).

In the next assay the test system is Aggrecan. The assay is described as above. The format is cell-based. As to conditions: 4 hrs. The method, then:
as §1

The test system of a further assay is MMP-9. Described as above. Conditions: stim. 4 hrs; 50 μmol/L. It counts as cell-based.
Another assay concerns Collagen II. The assay is described as above. The format is cell-based. Conditions: 4 hrs; 50 μmol/L.
The next assay deals with Inflammatory mediator NO. Briefly: Inhibition of nitric oxide synthesis in LPS-stimulated RAW264.7 macrophages (Griess reaction). As to conditions: for pIC50: Mus musculus; for anti-inflammatory activity (in words): NO inhibition. It counts as cell-based, murine. On the procedure:
The anti-inflammatory effects were determined in cellular assays by measuring the inhibition of the synthesis of nitric oxide and/or pro-inflammatory prostaglandins (PGE2). PGE2 plays a critical role in the inflammation process, while nitric oxide (NO) is a hallmark of inflammation in various chronic inflammatory diseases including various forms of arthritis, gastro-intestinal diseases and metabolic syndrome X. The effects on the inflammatory response were tested in cellular assays using a murine macrophage cell line, RAW264.7. The cells were purchased from ATCC (Manassas, Va., USA) and cultured in DMEM containing streptomycin/penicillin, non-essential amino acids and 10% fetal calf serum (FCS). In order to test a large range of concentration of MA and HO as well as mixtures thereof, cells (˜50'000/well) were seeded into flat-bottomed microtiter plates and cultured for one day. Cells were then starved in complete medium containing 0.25% FCS (D-025). After overnight culture, medium was removed and replaced by 100 μL of D-025 containing the test compounds at twice the final concentration. Subsequently, 100 μL of D-025 containing 2 μg/ml LPS was added (i.e. final LPS concentration of 1 μg/ml) and the cells cultured for 24 hours. Substances were usually tested in a concentration range from 0.2 to 50 μM in two-fold dilution steps. All treatments were done in duplicates and several experimental series were done for each treatment. Concentrations of nitrite which was rapidly formed from nitric oxide released by cells were determined by the Griess reaction using sodium nitrite as standard. Briefly, 50 μl of supernatant was mixed with Griess reagent 1 (25 μL) and Griess reagent 2 (25 μL), centrifuged and the optical density at 540 nm determined. PGE2 secreted into the cell culture medium was determined by EIA obtained from Cayman Chemicals (Ann Harbor, Wis., USA) and used according to the manufacturer's instructions. All determinations were done in duplicates and at various dilutions of the culture supernatant. IC50 values for LPS-stimulated cells were calculated using a […] least-square fitting equation [y=A+((B−A)/(1+((C−x)̂D))] for best-fit curves (Excel fit software program).
In order to determine the synergistic concentration range of MA to HO, various mixtures thereof were tested for their anti-inflammatory by measuring the inhibition of the synthesis of nitric oxide (NO) as outlined above.
The synergistic effect of a combination of a mixture of MA/HO (1:3 w/w) with glucosamine sulfate (ratio MA/HO (1:3 w/w) to glucosamine sulfate: 50 μmol/L to 50 μmol/L) or chondroitin sulfate (ratio MA/HO (1:3 w/w) to chondroitin sulfate: 13.3 mg/L (i.e. 50 μmol/L) to 500 mg/L) on the inhibition of the inflammatory mediator nitric oxide (NO) has been evaluated based on the method published by Chou and Talalay (A simple generalized equation for the analysis of multiple inhibitions of Michealis-Menten kinetic systems. J. Biol. Chem. 1977. 252: 6438-6442).

Another assay deals with ADAMTS-4. Nature of the assay: Gene expression in normal human chondrocytes, RT-PCR. It counts as cell-based. Conditions: unstim. 4 d; 50 μmol/L.
A further assay deals with Collagen I. Described as above. It counts as cell-based. Conditions: for Expression level (%) Collagen I: at 12.5 μmol/L, 4 hours, % of unstimulated cells (100%).
Another assay deals with ADAMTS-5. Described as above. It counts as cell-based. Conditions: stim. 4 hrs; 500 mg/L; % of IL1β-treated cells. The method, then:
[Worded in the source for another target; this target is reported under the same test.] as §1

Another assay concerns SOX-9. The assay is described as above. It counts as cell-based. Conditions: for Expression level (%) SOX-9: at 12.5 μmol/L, 4 hours, % of unstimulated cells (100%). The method, then:
as §1

The next assay has as its system MMP-2. Described as above. As to conditions: 4 d; 500 mg/L; % of IL1β-treated cells. The format is cell-based.
The next assay relates to SOX-6. The description is as above. The format is cell-based. As to conditions: at 12.5 μmol/L, 4 hours; % of unstimulated cells (100%).
Assay [1] concerns normal human chondrocytes. Briefly: Effects on chondrocytes (cartilage build-up), overall gene expression. The format is cell-based. Conditions: 12.5 μmol/L, un- (non-IL1 beta-) stimulated cells. The method, then:
as §1
In table 2.1 the effect of MA and HO alone as well as of mixtures thereof in the indicated molar ratios on the expression of genes that are involved in cartilage build-up is shown.

For a further assay, the system named is IL-RI Receptor for Il-1. Briefly: Gene expression in normal human chondrocytes, RT-PCR. The format is cell-based. As to conditions: at 12.5 μmol/L, 4 hours; control set at 100%.
Assay [2] deals with Inflammatory mediator PGE2. Nature of the assay: Inhibition of PGE2 synthesis in LPS-stimulated RAW264.7 macrophages (EIA). It counts as cell-based, murine. As to conditions: Mus musculus, read-out: IC50 Observed, inflammatory mediator PGE2.
Description: The anti-inflammatory effects were determined in cellular assays by measuring the inhibition of the synthesis of nitric oxide and/or pro-inflammatory prostaglandins (PGE2). […] The cells were purchased from ATCC (Manassas, Va., USA) and cultured in DMEM containing streptomycin/penicillin, non-essential amino acids and 10% fetal calf serum (FCS). […] Cells were then starved in complete medium containing 0.25% FCS (D-025). After overnight culture, medium was removed and replaced by 100 μL of D-025 containing the test compounds at twice the final concentration. Subsequently, 100 μL of D-025 containing 2 μg/ml LPS was added (i.e. final LPS concentration of 1 μg/ml) and the cells cultured for 24 hours. […] Concentrations of nitrite which was rapidly formed from nitric oxide released by cells were determined by the Griess reaction using sodium nitrite as standard. Briefly, 50 μl of supernatant was mixed with Griess reagent 1 (25 μL) and Griess reagent 2 (25 μL), centrifuged and the optical density at 540 nm determined. PGE2 secreted into the cell culture medium was determined by EIA obtained from Cayman Chemicals (Ann Harbor, Wis., USA) and used according to the manufacturer's instructions. […] IC50 values for LPS-stimulated cells were calculated using a two-parametric least-square fitting equation [y=A+((B−A)/(1+((C−x)̂D))] for best-fit curves (Excel fit software program).
The subject of the next assay is I-κBalpha. Briefly: Inflammatory gene expression in RAW 264.7 cells, quantitative RT-PCR. The format is cell-based, murine. As to conditions: at 12.5 μmol/L, 4 hours; relative to LPS-stimulated cells (100%). The text has this:
(§2) Inflammatory responses are orchestrated by the transient activation of a variety of genes. Their regulation is tightly controlled via signaling pathways and eventually proteins that control the expression of genes such as transcription factors. Consequently, the effect of the compounds (each of them and various ratios of mixtures) has also been evaluated at the level of the expression of genes that are involved in the inflammatory response. These comprise genes of the prostaglandin synthesis pathway (e.g. COX-2), interleukins (e.g. IL1-α, IL-1β, IL-6), cytokines (e.g. TNF-α), inducible nitric oxide synthase (iNOS) and chemokines. RAW 264.7 cells were stimulated in the presence of different concentrations of substances. After 4 hours, RNA was extracted and the expression of genes determined by quantitative RT-PCR as described by Richard, […]. and […]. in Mol Nutr Food Res 2005. 49: 431-442. In table 3, the effect of MA and HO alone as well as of mixtures thereof in the indicated molar ratios on the expression of inflammatory genes or on anti-inflammatory transcription factors (I-κBα) is shown. The level of mRNA was determined by RT-PCR and expressed relative to the level observed in LPS-stimulated cells (i.e. without compounds).

A further assay has as its system IL-1alpha. The description is as above. It counts as cell-based, murine. Conditions: at 12.5 μmol/L, 4 hours; relative to LPS-stimulated cells (100%).
From the text: as §2

A further assay deals with TNF-alpha. The assay is described as above. The format is cell-based, murine. Conditions: at 12.5 μmol/L, 4 hours; relative to LPS-stimulated cells (100%).
From the text: as §2

For a further assay, the system named is IL-10. The description is as above. As to conditions: at 12.5 μmol/L, 4 hours; relative to LPS-stimulated cells (100%). It counts as cell-based, murine.
From the text: as §2

The mark [3] stands for this setting: LPS 1 μg/ml, 24 hours, RAW264.7, read-out: IC50 Observed, inflammatory mediator NO.

For orientation: pIC50 means the IC50 on a negative log10 scale, so that one unit is a factor of ten.

pIC50: −log10 of the molar value. Where two headings read alike, the source gives them in different places.

As to `N[C@H]1C(O)O[C@H](CO)[C@@H](O)[C@@H]1O.O=S(=O)(O)O` (stereo partly drawn) [Glucosamine sulfate, glucosamine sulfate], the “level of gene expression TIMP-1” value with TIMP-1 (4 hrs, 50 μmol/L) is 110%. Also, the “level of gene expression Aggrecan” value in the assay with Aggrecan (50 μmol/L) was 81%. The “level of gene expression MMP-9” value in the assay with MMP-9 stood at 114%. For the same compound, the “level of gene expression Collagen II” value in the assay with Collagen II was 154%. In addition, the pIC50 in the assay on Inflammatory mediator NO (single substance, LPS-stimulated RAW264.7, read-out: IC50 Nitric Oxide) is less than 4.00. In the assay on Inflammatory mediator NO (single substance), the “anti-inflammatory activity (in words)” value is recorded as “marginal anti-inflammatory”. Moreover, the “level of gene expression ADAMTS-4” value with ADAMTS-4 turned out to be 101%. Moreover, in the assay on Collagen I (4 hrs, 50 μmol/L), the “level of gene expression Collagen 1” value was 121%.

As for Chondroitin sulfate, the “level of gene expression ADAMTS-5” value in the assay on ADAMTS-5 was 107%. In addition, the “level of gene expression SOX-9” value in the assay on SOX-9 (500 mg/L, % of unstimulated cells) turned out to be 147%. In addition, the “level of gene expression TIMP-1” value in the assay on TIMP-1 (unstim., 4 d, 500 mg/L) amounted to 106%. Also, the “level of gene expression Aggrecan” value with Aggrecan (stim., 500 mg/L) is 62%. Moreover, in the assay with MMP-2, the “level of gene expression MMP-2” value worked out at 93%. Further, the “IC50 Nitric Oxide” value in the assay with Inflammatory mediator NO (single substance, LPS-stimulated RAW264.7) was greater than 50 µg/mL. Also, the “anti-inflammatory activity (in words)” value in the assay with Inflammatory mediator NO (single substance) is “marginal anti-inflammatory”.

As to `C=CCc1ccc(O)c(-c2cc(CC=C)ccc2O)c1` [MA, 5,5′-Diallyl-2,2′-biphenyldiol], the “Expression level (%) SOX-6” value with SOX-6 is 94%. Also, the “Expression level (%) SOX-9” value in the assay with SOX-9 is recorded as 110%. Besides, the “Expression level (%) TIMP-1” value in the assay on TIMP-1 amounted to 96%. Also, the “cartilage build-up effect (in words)” value in assay [1] is recorded as “to lesser extent”. The “Expression level (%) IL-RI (Receptor for Il-1)” value with IL-RI Receptor for Il-1 amounted to 98%. Further, the pIC50 in the assay with Inflammatory mediator NO (setting [3]) was 5.05; in assay [2] (RAW264.7, 24 h) it was 5.29. Further, the “Expression level (%) I-κBalpha” value in the assay with I-κBalpha was found to be 99%. Further, the “Expression level (%) IL-1alpha” value in the assay on IL-1alpha is given as 70%. In addition, in the assay with TNF-alpha, the “Expression level (%) TNF-alpha” value is given as 96%. Besides, the “Expression level (%) IL-10” value with IL-10 was 136%. Moreover, the “Expression level (%) Collagen I” value in the assay with Collagen I worked out at 78%.

Regarding `C=CCc1ccc(O)c(-c2ccc(O)c(CC=C)c2)c1` [HO, 3′,5-Diallyl-2,4′-biphenyldiol], the “Expression level (%) SOX-6” value in the assay on SOX-6 is 130%. Also, in the assay with SOX-9, the “Expression level (%) SOX-9” value came out at 124%. Also, the “Expression level (%) TIMP-1” value in the assay on TIMP-1 is reported as 106%. Further, the “cartilage build-up effect (in words)” value in assay [1] is “favors cartilage build-up”. Also, the “Expression level (%) IL-RI (Receptor for Il-1)” value in the assay on IL-RI Receptor for Il-1 worked out at 89%. Also, the pIC50 with Inflammatory mediator NO (setting [3]) was 5.34; in [2] (LPS 1 μg/ml, 24 hours, RAW264.7), 5.69. For the same compound, the “Expression level (%) I-κBalpha” value in the assay on I-κBalpha was 96%. Also, the “Expression level (%) IL-1alpha” value in the assay with IL-1alpha came to 68%. In the assay on TNF-alpha, the “Expression level (%) TNF-alpha” value is given as 81%. Besides, in the assay on IL-10, the “Expression level (%) IL-10” value came out at 94%. In addition, in the assay with Collagen I, the “Expression level (%) Collagen I” value is given as 100%.
